One compound from publication PMC8386742, “Discovery of N-aryl sulphonamide-quinazoline derivatives as anti-gastric cancer agents in vitro and in vivo via activating the Hippo signalling pathway” (Journal of Enzyme Inhibition and Medicinal Chemistry, 2021) can be followed below.

For one data set, the system named is HCT-116 cells. In words: MTT antiproliferative assay, HCT-116 cells. It is filed as cell-based, human. As to conditions: exposure for 48 h. How it is done:
The in vitro antiproliferative activities of new target compounds 6a–6g, 9a–9i, 10a–10j, 11a–11j, and 14a–14d were evaluated against four human cancer cell lines (MGC-803, PC-3, HCT-116, and MCF-7) using MTT assay and 5-FU as a positive drug. The following Tables 1–[4] depicted the results of in vitro antiproliferative activity.
Cell lines used were cultured in humidified incubator in a humidified atmosphere of 5% CO2 and 95% air. The RPMI-1640 medium was supplemented with 10% foetal bovine serum, penicillin (100 U/ml) and streptomycin (0.1 mg/ml).
Cell lines were seeded into 96-well plates and incubated for 24 h. Then cells were treated with different concentrations of compounds. And after another 48 h, MTT reagent (20 μL per well) was added to each well and then incubated at 37 °C for 4 h. After the suspension was discarded, formazan was then dissolved with DMSO. Absorbencies of formazan solution were measured at 490 nm. The IC50 values of tested compounds were calculated by SPSS version 17.0.

The next data set concerns MGC-803 cells. The experiment in a line: Annexin V-FITC/PI cell apoptosis assay, MGC-803 cells. It counts as cell-based, human. The following applies: MGC-803, high dose, 48 h. How it is done: (§1) Bcl-2 regulated by the Hippo/YAP plays an important role in cell apoptosis. Therefore, we next examined the effects of compound 9i on cell apoptosis. MGC-803 and SGC-7901 cells were treated with compound 9i for 48 h, as shown in Figures 5(A,B), the nuclei of gastric cancer are dense and fragmented, and cells became round, small, and was induced to die. To determine the influence of compound 9i on cell death, MGC-803 and SGC-7901 cells treated with compound 9i were stained with Annexin V-FITC/PI. As shown in Figure 5(C), the high dose compound 9i treatment group induced over 60% of cell apoptosis at 48 h. As shown in Figure 5(D), some other apoptosis-related proteins were also regulated by compound 9i in MGC-803 and SGC-7901 cells. Compound 9i caused dose-dependent decreases of anti-apoptosis proteins c-IAP and Mcl-1. […] Mitochondrial membrane potential depolarisation and translocation from the mitochondria to the cytoplasm of cytochrome c are two key steps involved in the intrinsic apoptosis pathway. As shown in Figures 5(F–H), compound 9i depolarised mitochondrial membrane potential and induced the translocation of cytochrome c.
(§2) Figure 5. Compound 9i induced apoptosis in MGC-803 and SGC-7901 cells. Density ratios relative to β-Actin were shown on the top of each Western blotting band. […] The cell line of each row appears only in tiny plot titles that cannot be read with certainty. […]

The test system of another data set is SGC-7901 cells. The experiment in a line: Annexin V-FITC/PI cell apoptosis assay, SGC-7901 cells. As to conditions: SGC-7901, high dose, 48 h. It is filed as cell-based. How it is done:
as §1, §2

In data set [1] the test system is MGC-803 and SGC-7901 cells. In words: Colony formation assay in gastric cancer cells. It is filed as cell-based. The following applies: 150 nM, 7 days. The source says: Because of the potent inhibitory activity on cell viability of compound 9i, we next explored the effects of compound 9i on cell proliferation in MGC-803 and SGC-7901 cells.
Figure 6. Gastric cancer cell proliferation inhibition inhibited by 9i. Density ratios relative to β-Actin were shown on the top of each Western blotting band. (A,B) Cell growth curves of in MGC-803 and SGC-7901 cells after the treatment with indicated concentrations of 9i for different hours; (C,D). Gastric cancer cell colony formation, cells were treated for 7 days; (E) Cell cycle distribution of MGC-803 and SGC-7901 after the treatment with indicated concentrations of 9i for 24 h; (F,G) Cell cycle related proteins in gastric cancer cells after the treatment with indicated concentrations of 9i for 24 h.
In this work, some other assays including colony formation assay, cell apoptosis assay and immunostaining assay were referred to our previous work[35]^,[36].

A short description of data set [2]: In vivo toxicity in MGC-803 bearing mice (body weight, blood biochemistry, H&E). Further details: species or system nude mice. How it is done: The bodyweight of mice was recorded during the treatment every 3 days. […] Blood samples and organs were collected after mice were executed.
A human gastric cancer subcutaneous transplantation tumour model was established with MGC-803 cells. After the tumour volume reaches 100 mm3 the MGC-803 bearing mice were randomised into 3 groups and intraperitoneal injection with normal saline or drugs continuously for 21 days. Tumour volume was measured every 3 days (Length × Width2/2). Mice were executed after treatment. 500 μL blood samples was collected each mouse, samples were then centrifuged at 2000 g for 10 min for biochemistry analysis. Tumour and organs tissues were harvested for H&E staining or immunochemistry detection. The experiments in the study were performed comply with the protocols approved by the Institutional Animal Care and Use Committee, Zhengzhou University.

With `COc1ccc(S(=O)(=O)N(Cc2nc(C)c3ccccc3n2)c2cc(OC)c(OC)c(OC)c2)cc1` [Compound 9i, 4-Methoxy-N-((4-methylquinazolin-2-yl)methyl)-N-(3,4,5-trimethoxyphenyl) benzene-sulfonamide], the IC50 amounted to 708 nM with HCT-116 cells (Homo sapiens, HCT-116, 48 h) and 700 ± 40 nM with HCT-116 cells. For the same compound, the cell apoptosis entry in the data set with MGC-803 cells and in the data set with SGC-7901 cells was “over 60%” in each case. Further, the colony formation entry in data set [1] is recorded as “significantly decreased”. Further, the “blood biochemical indexes (ALT, AST, T-BIL, UA, CRE, BUN) versus vehicle control group” value in data set [2] (blood samples after execution) was “no significant difference”. In data set [2] (body weight, blood biochemistry, H&E staining of organs), the toxicity in vivo entry was “did not show obvious toxicity in vivo”. Moreover, in data set [2] (recorded every 3 days during 21 days treatment), the “bodyweight of mice versus vehicle control group” value is recorded as “did not show a significant difference”.

In general, IC50 refers to the concentration needed to halve the response being measured. Higher therefore signals weaker potency.
